Experimental findings from PubChem BioAssay (NCI) are described below.

Where “and” joins values, the source holds several entries; their conditions need not be identical. Identical values can stand only once.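 These data come from cells grown in 96-well plates and exposed to compound for 48 hours at five concentrations. GI50: concentration for 50% inhibition of growth. At the TGI there is no net growth.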

What all share (assay): NCI tumour cell line growth inhibition, 48 h
For test [1], the system named is HCT-15 colon.
The subject of test [2] is HL-60(TB) leukemia.
In test [3] the test system is HOP-62 NSCLC.
The subject of test [4] is HT29 colon.
Test [5] deals with IGROV1 ovarian.
Test [6] concerns MCF7 breast.
Test [7] has as its system MDA-MB-435.
Test [8] concerns RXF 393 renal.
The test system of test [9] is SF-295 CNS.
The subject of test [10] is UACC-257 melanoma.

Consider `Cc1nn(C)c(COc2ccc(N3CCN(S(=O)(=O)N(C)C)CC3)cc2)c1-c1cccc2c(CCCOc3cccc4ccccc34)c(C(=O)O)n(CCN3CCOCC3)c12`, for which the GI50 in test [1] is 7.62 µM; in test [2] it was 2.45 µM; in test [3], 3.03 µM; in test [4], 2.63 µM; in test [5], 3.52 µM; in test [6], 2.84 µM. For the same molecule, the GI50 in test [7] was 3.4 µM; in [8], 2.72 µM; in test [9], 2.78 µM; in test [10], 2.91 µM. Further, the TGI in [1] came to 22.9 µM; in test [2], 6.07 µM; in test [3] it was 14.4 µM; in test [4], 6.92 µM; in [5], 11.7 µM; in [6], 11 µM. Besides, the TGI in [7] was 12 µM; in test [8], 6.98 µM; in [9] it was 10.2 µM; in [10], 9.52 µM.

As to `CC(=O)[O][Sn]([CH2]c1ccccc1)([CH2]c1ccccc1)[CH2]c1ccccc1`, the GI50 in [1] is 4.25 µM; in [2], greater than 5.79 µM; in test [3], greater than 5.55 µM; in test [4] it was 4.72 µM; in test [5], greater than 10 µM; in [6], greater than 10 µM. The GI50 is greater than 7 µM in [7], 3.98 µM in test [8], greater than 5.52 µM in [9] and greater than 10 µM in test [10]. Moreover, the TGI in test [1] is greater than 4.64 µM; in [2], greater than 7.61 µM; in [3], greater than 6.75 µM; in [4], greater than 8.87 µM; in test [5] it was greater than 10 µM; in test [6], greater than 10 µM. Moreover, the TGI in test [7] is greater than 10 µM; in test [8], greater than 4.64 µM; in [9] it was greater than 6.84 µM; in test [10], greater than 10 µM.

On to `COc1ccc(C2=CC(c3ccc(OC)cc3Br)N3C=CSC3=N2)cc1` (centres undefined), for which the GI50 in test [1] is 1.49 µM; in test [2], 3.2 µM; in [3], 10.5 µM; in test [4] it was 2.09 µM; in test [5], 7.31 µM; in test [6], 1.51 µM. Further, the GI50 in test [7] was 2.58 µM; in test [8], 7.67 µM; in test [9], 11.5 µM; in [10], 10.8 µM. Moreover, the TGI amounted to 3.41 µM in [1]; 19.3 µM in [2]; 24.8 µM in test [3]; 4.87 µM in test [4]; 30.7 µM in test [5]; 11.2 µM in [6]. Further, the TGI in [7] amounted to 7.95 µM; in test [8], 22 µM; in test [9], 38.7 µM; in test [10], 31.3 µM.

Turning to `Cc1[nH]c(=O)nc(Nc2ccc(Cl)cc2)c1C(=O)N1CCN(CCO)CC1`, the GI50 in [1] is greater than 100 µM; in test [2], greater than 100 µM; in [3] it was 27.2 µM; in test [4], greater than 100 µM; in test [5], greater than 100 µM; in test [6], greater than 100 µM. Further, the GI50 is greater than 100 µM in [7], 24.4 µM in test [8], 32.1 µM in test [9] and greater than 100 µM in [10]. Besides, the TGI in test [1] was greater than 100 µM; in [2], greater than 100 µM; in test [3] it was 77.4 µM; in [4], greater than 100 µM; in [5] it was greater than 100 µM; in test [6], greater than 100 µM. Further, the TGI in test [7] is greater than 100 µM; in [8], 76.8 µM; in [9] it was greater than 100 µM; in test [10] it was greater than 100 µM.

On to `O=c1c(O)c(-c2ccc(O)c(O)c2)oc2cc(O)cc(O)c12`, for which the GI50 is 10.1 µM in test [1]; 10.9 µM in test [2]; 15.6 µM in [3]; 37.3 µM in [4]; 11.5 µM in test [5]; 7.95 µM in test [6]. In addition, the GI50 is 5.08 µM in test [7], 11.7 µM in test [8], 23.1 µM in test [9] and 37.4 µM in test [10]. Also, the TGI in [1] is greater than 100 µM; in [2] it was 65.3 µM and 47.8 µM; in test [3] it was greater than 100 µM; in test [4] it was greater than 100 µM; in test [5] it was greater than 100 µM; in test [6], greater than 100 µM. The TGI is greater than 100 µM in test [7]; 50.9 µM and > 100 µM in test [8]; greater than 100 µM in [9]; greater than 100 µM in [10].

Turning to `Cc1nn(-c2ccc(Cl)cc2)c2nc3c(nc12)C(=O)C(=O)c1ccccc1-3`, the GI50 was 3.4 µM in test [1]; 4.32 µM in test [2]; 9.71 µM in test [3]; 2.01 µM in test [4]; 5.46 µM in test [5]; 27.9 µM in [6]. For the same molecule, the GI50 in test [7] was 6.31 µM; in [8] it was 19.7 µM; in test [9], 1.72 µM; in [10] it was 3.24 µM. For the same molecule, the TGI in test [1] is 16.8 µM; in test [2], greater than 100 µM; in test [3], 30.4 µM; in test [4], 3.99 µM; in test [5], 47.3 µM; in [6], greater than 100 µM. The TGI in [7] is greater than 100 µM; in test [8], 64.6 µM; in [9], 3.43 µM; in test [10] it was 11.9 µM.

Regarding `COc1cc(/C=C/C(=O)c2ccc(F)cc2)ccc1OCCCN1CCN(CC(=O)Nc2ccc(Cl)cc2C(=O)c2ccccc2Cl)CC1`, the GI50 is 4.09 µM in [1]; 4.23 µM in test [2]; 15.5 µM in test [3]; 2.05 µM in test [4]; 6.17 µM in [5]; 2.69 µM in [6]. In addition, the GI50 in test [7] is 8.19 µM; in test [8] it was 2.84 µM; in [9], 5.57 µM; in test [10], 9.51 µM. For the same molecule, the TGI in test [1] is 19.5 µM; in [2] it was 25.9 µM; in test [3] it was 31.9 µM; in test [4] it was 10.4 µM; in [5] it was 41.6 µM; in test [6] it was 12.1 µM. In addition, the TGI in [7] is 22.5 µM; in test [8], 15.8 µM; in test [9] it was 19 µM; in test [10], 47.9 µM.

Take `Cc1cnc(CNC(=O)c2c(=O)c3ccc(N4CCCN(C)CC4)nc3n3c2sc2ccccc23)cn1`: the GI50 in [1] is 1.03 µM; in test [2], 11.2 µM; in test [3] it was 7.16 µM; in [4], 1.43 µM; in test [5], 1.89 µM; in test [6], 0.804 µM. The GI50 is 5.4 µM in test [7], 3.39 µM in test [8], 1.32 µM in [9] and 17 µM in [10]. For the same molecule, the TGI in [1] was determined as 7.31 µM; in test [2], 31.3 µM; in test [3] it was 25.4 µM; in test [4], 19 µM; in test [5] it was 22.2 µM; in test [6] it was 16.4 µM. The TGI is 21.3 µM in test [7], 18.9 µM in test [8], 18.6 µM in test [9] and 32.9 µM in test [10].

Regarding `Nc1ccccc1C#C/C=C\C#Cc1cccc(O)c1`, the GI50 in test [1] is 2.04 µM; in test [2], 4.15 µM; in test [3], 2.63 µM; in test [4], 11.4 µM; in test [5] it was 0.646 µM; in [6] it was 0.918 µM. Further, the GI50 was 1.5 µM in [7], 0.423 µM in test [8], 2.19 µM in [9] and 10.2 µM in test [10]. Also, the TGI was found to be 13.9 µM in test [1]; 21.2 µM in test [2]; 12.1 µM in [3]; 41.7 µM in test [4]; 12.3 µM in [5]; 11.2 µM in [6]. In addition, the TGI turned out to be 4.12 µM in [7], 5.02 µM in [8], 8.29 µM in [9] and 23.4 µM in [10].

Regarding `COc1ccc(/C=C(\C(=O)NCc2cccnc2)S(=O)(=O)c2ccccc2)cc1OC`, the GI50 is 2.85 µM in test [1]; 2.01 µM in test [2]; 3.51 µM in test [3]; 3.45 µM in test [4]; 2.22 µM in [5]; 2.41 µM in [6]. The GI50 in test [7] is 2.74 µM; in test [8], 2.08 µM; in test [9] it was 2.95 µM; in [10] it was 3.03 µM. Further, the TGI in test [1] was 11.7 µM; in test [2] it was 6.42 µM; in test [3], 11.4 µM; in [4], 14.8 µM; in [5] it was 11.3 µM; in test [6], 12.7 µM. For the same molecule, the TGI in test [7] was 10.9 µM; in [8], 4.26 µM; in test [9], 9.11 µM; in test [10], 13.9 µM.

`CC(C)CCNCC(O)Cn1c2ccccc2c2ccccc21` (centres undefined): the GI50 in [1] is 11.9 µM; in [2], 14.3 µM; in test [3] it was 15.4 µM; in test [4], 3.42 µM; in test [5], 14 µM; in test [6] it was 2.72 µM. Also, the GI50 is 3.82 µM in test [7], 5.36 µM in [8], 19.4 µM in test [9] and 5 µM in [10]. The TGI in [1] was found to be 26.7 µM; in test [2], 31.6 µM; in test [3] it was 29.7 µM; in test [4] it was 10.6 µM; in test [5] it was 32.1 µM; in [6], 10.3 µM. The TGI in [7] turned out to be 14.8 µM; in test [8], 19.9 µM; in test [9], 39.4 µM; in test [10], 17.2 µM.

With `CN(C)c1ccc(C(=NO)c2ccc(N(C)C)cc2)cc1`, the GI50 in test [1] is 1.64 µM; in test [2] it was 1.62 µM; in test [3], 6.1 µM; in test [4] it was 3.6 µM; in test [5], 2.4 µM; in test [6], 1.71 µM. In addition, the results for the GI50 in [7], in [8] and in [10] were 0.277 µM, 1.46 µM and 5.12 µM, respectively. Moreover, the TGI in [1], in [2], in test [3], in [4], in [5] and in test [6] was greater than 100 µM each time. Further, the values for the TGI in [7], in test [8] and in test [10] were 1.92 µM, 5.03 µM and greater than 100 µM, respectively.

Regarding `COc1cnc2c(c1)C(=O)c1c-2n(CCCNC2=NCCS2)c(=O)c2cc(Cl)ccc12`, the GI50 in test [1] was 1.26 µM; in test [2], 0.656 µM; in [3], 0.0425 µM; in test [4], 0.121 µM; in test [6], 0.0366 µM; in test [7], 1.43 µM. The GI50 in test [8] is 0.783 µM; in [9] it was 0.0776 µM; in test [10], 1.53 µM. Moreover, the TGI amounted to 2.67 µM in [1]; 3.39 µM in test [2]; 1.51 µM in [3]; 2.23 µM in [4]; 1.32 µM in test [6]; 2.76 µM in test [7]. Moreover, the results for the TGI in test [8], in [9] and in test [10] were 2.2 µM, 1.07 µM and 3.11 µM, respectively.

On to `COC(=O)C1=C(C)NC(C)=C(C(=O)OCC(C)C)C1c1ccccc1[N+](=O)[O-]` (centres undefined), for which the GI50 in test [1] is 3.88 µM; in [2] it was 2.73 µM; in test [3], 5.24 µM; in [4], 9.2 µM; in test [5], 5.55 µM; in [6] it was 3.58 µM. Also, the GI50 was 4.25 µM in test [7], 2.11 µM in [8] and 3.71 µM in test [10]. The TGI in [1] came to 15.9 µM; in test [2] it was 9.46 µM; in test [3] it was 18.4 µM; in test [4], 22.9 µM; in test [5] it was 25.9 µM; in test [6] it was 16.1 µM. In addition, the TGI in test [7] is 17.6 µM; in [8], 8.31 µM; in [10], 12.5 µM.
